Results taken from ChEMBL document CHEMBL5154835, “Design, synthesis and biological evaluation of sulfonamides inhibitors of XPO1 displaying activity against multiple myeloma cells” (Eur J Med Chem, 2022).
pIC50: −log10 of the molar value. Active and inactive are the calls of the source. The calls are words filed in the database; no cut-off is given here.

What was measured:
[1] = Antiproliferative activity against human Rael cells assessed as inhibition of cell growth incubated for 4 hrs by CCK-8 assay; format: functional, cell-based
[2] = Bioavailability in Sprague-Dawley rat at 10 mg/kg, IG measured upto 8 hrs by LC-MS/MS analysis; format: ADME, organism-based; settings: in vivo, po
MM1.S [3] = experiment: Induction of apoptosis in human MM1.S cells assessed as assessed as viable cells at 1000 nM measured after 48 hrs by annexin V-FITC/PI staining based flow cytometry analysis (Rvb=85.74%); format: functional; settings: read-out: Activity
[4] = Antiproliferative activity against human Mutu-1 cells assessed as inhibition of cell growth incubated for 4 hrs by CCK-8 assay; format: functional, cell-based; settings: Mutu-1, 4 h
[5] = AUC (0 to t) in Sprague-Dawley rat at 1 mg/kg, iv measured upto 8 hrs by LC-MS/MS analysis; format: ADME, organism-based; set-up: time < 8 hrs, dose 1 mg/kg, route iv; settings: in vivo
MM1.S [6] = experiment: Induction of cell cycle arrest in human MM1.S cells assessed as p53-dependent accumulation of cells in G2 phase at 5000 nM incubated for 48 hrs by propidium iodide staining based flow cytometric analysis (reference value: 18.4%); format: functional
H9 = experiment: Antiproliferative activity against human H9 cells assessed as inhibition of cell growth incubated for 4 hrs by CCK-8 assay; format: functional, cell-based; settings: H9, 4 h
[7] = Antiproliferative activity against human JB-6 cells assessed as inhibition of cell growth incubated for 4 hrs by CCK-8 assay; format: functional, cell-based; settings: JB6, 4 h
MM1.S [8] = experiment: Induction of cell cycle arrest in human MM1.S cells assessed as accumulation at S phase at 10000 nM incubated for 48 hrs by propidium iodide staining based flow cytometric analysis (reference value: 21.8%); format: functional
YT = experiment: Antiproliferative activity against human YT cells assessed as inhibition of cell growth incubated for 4 hrs by CCK-8 assay; format: functional, cell-based
MM1.S [9] = experiment: Induction of apoptosis in human MM1.S cells assessed as increase in apoptosis rate at 10 uM measured after 48 hrs by annexin V-FITC/PI staining based flow cytometry analysis (Rvb=6.7%); format: functional
MM1.S [10] = experiment: Induction of cell cycle arrest in human MM1.S cells assessed as p53-dependent accumulation of cells in G2 phase at 100 nM incubated for 48 hrs by propidium iodide staining based flow cytometric analysis (reference value: 18.4%); format: functional
MM1.S [11] = experiment: Induction of cell cycle arrest in human MM1.S cells assessed as accumulation at G1 phase at 1000 nM incubated for 48 hrs by propidium iodide staining based flow cytometric analysis (reference value: 59.8%); format: functional
MM1.S [12] = experiment: Induction of cell cycle arrest in human MM1.S cells assessed as accumulation at S phase at 100 nM incubated for 48 hrs by propidium iodide staining based flow cytometric analysis (reference value: 21.8%); format: functional
MM1.S [13] = experiment: Induction of apoptosis in human MM1.S cells assessed as assessed as necrotic cells at 100 nM measured after 48 hrs by annexin V-FITC/PI staining based flow cytometry analysis (Rvb=7.60%); format: functional
MM1.S [14] = experiment: Induction of apoptosis in human MM1.S cells assessed as assessed as late apoptotic cells at 100 nM measured after 48 hrs by annexin V-FITC/PI staining based flow cytometry analysis (Rvb=2.06%); format: functional
MM1.S [15] = experiment: Antiproliferative activity against human MM1.S cells assessed as inhibition of cell growth incubated for 4 hrs by CCK-8 assay; format: functional, cell-based
MM1.S [16] = experiment: Induction of apoptosis in human MM1.S cells assessed as assessed as viable cells at 10000 nM measured after 48 hrs by annexin V-FITC/PI staining based flow cytometry analysis (Rvb=85.74%); format: functional; settings: read-out: Activity
[17] = Half life in Sprague-Dawley rat at 1 mg/kg, iv measured upto 8 hrs by LC-MS/MS analysis; format: ADME, organism-based; settings: in vivo
MM1.S [18] = experiment: Induction of apoptosis in human MM1.S cells assessed as assessed as late apoptotic cells at 1000 nM measured after 48 hrs by annexin V-FITC/PI staining based flow cytometry analysis (Rvb=2.06%); format: functional
MM1.S [19] = experiment: Induction of cell cycle arrest in human MM1.S cells assessed as p53-dependent accumulation of cells in G2 phase at 1000 nM incubated for 48 hrs by propidium iodide staining based flow cytometric analysis (reference value: 18.4%); format: functional
[20] = Metabolic stability in rat liver microsomes assessed as compound remaining preincubated for 5 mins measured upto 60 mins in presence of NADPH by LC/MS analysis; format: ADME, Microsome; settings: time < 65 min, read-out: Stability
MM1.S [21] = experiment: Induction of cell cycle arrest in human MM1.S cells assessed as accumulation at G1 phase at 100 nM incubated for 48 hrs by propidium iodide staining based flow cytometric analysis (reference value: 59.8%); format: functional
MM1.S [22] = experiment: Induction of apoptosis in human MM1.S cells assessed as assessed as early apoptotic cells at 10000 nM measured after 48 hrs by annexin V-FITC/PI staining based flow cytometry analysis (Rvb=4.60%); format: functional
[23] = target: Exportin-1 (Homo sapiens) (UniProt O14980); experiment: Inhibition of XPO1 in human MM1.S cells at 0.1 to 10 uM incubated for 2 hrs by confocal microscopic analysis; format: cell-based; settings: dose 0.1-10 µM
MM1.S [24] = experiment: Induction of apoptosis in human MM1.S cells assessed as assessed as viable cells at 100 nM measured after 48 hrs by annexin V-FITC/PI staining based flow cytometry analysis (Rvb=85.74%); format: functional; settings: read-out: Activity
[25] = Antiproliferative activity against human MINO cells assessed as inhibition of cell growth incubated for 4 hrs by CCK-8 assay; format: functional, cell-based
[26] = Cmax in Sprague-Dawley rat at 10 mg/kg, IG measured upto 8 hrs by LC-MS/MS analysis; format: ADME, organism-based; set-up: dose 10 mg/kg, time < 8 hrs, route ig; settings: in vivo, po
MM1.S [27] = experiment: Induction of cell cycle arrest in human MM1.S cells assessed as accumulation at G1 phase at 10000 nM incubated for 48 hrs by propidium iodide staining based flow cytometric analysis (reference value: 59.8%); format: functional
MM1.S [28] = experiment: Induction of apoptosis in human MM1.S cells assessed as assessed as early apoptotic cells at 1000 nM measured after 48 hrs by annexin V-FITC/PI staining based flow cytometry analysis (Rvb=4.60%); format: functional
[29] = Cmax in Sprague-Dawley rat at 1 mg/kg, iv measured upto 8 hrs by LC-MS/MS analysis; format: ADME, organism-based; set-up: dose 1 mg/kg, time < 8 hrs, route iv; settings: in vivo
MM1.S [30] = experiment: Induction of apoptosis in human MM1.S cells assessed as assessed as early apoptotic cells at 100 nM measured after 48 hrs by annexin V-FITC/PI staining based flow cytometry analysis (Rvb=4.60%); format: functional
[31] = Clearance in Sprague-Dawley rat at 1 mg/kg, iv measured upto 8 hrs by LC-MS/MS analysis; format: ADME, organism-based; settings: in vivo
[32] = AUC (0 to infinity) in Sprague-Dawley rat at 10 mg/kg, IG measured upto 8 hrs by LC-MS/MS analysis; format: ADME, organism-based; set-up: dose 10 mg/kg, time < 8 hrs, route ig; settings: in vivo, po
MM1.S [33] = experiment: Induction of cell cycle arrest in human MM1.S cells assessed as accumulation at S phase at 5000 nM incubated for 48 hrs by propidium iodide staining based flow cytometric analysis (reference value: 21.8%); format: functional
[34] = Antiproliferative activity against human VAL cells assessed as inhibition of cell growth incubated for 4 hrs by CCK-8 assay; format: functional, cell-based
[35] = Half life in Sprague-Dawley rat at 10 mg/kg, IG measured upto 8 hrs by LC-MS/MS analysis; format: ADME, organism-based; settings: in vivo, po

Exportin-1 (Homo sapiens), sequence (O14980 whole entry): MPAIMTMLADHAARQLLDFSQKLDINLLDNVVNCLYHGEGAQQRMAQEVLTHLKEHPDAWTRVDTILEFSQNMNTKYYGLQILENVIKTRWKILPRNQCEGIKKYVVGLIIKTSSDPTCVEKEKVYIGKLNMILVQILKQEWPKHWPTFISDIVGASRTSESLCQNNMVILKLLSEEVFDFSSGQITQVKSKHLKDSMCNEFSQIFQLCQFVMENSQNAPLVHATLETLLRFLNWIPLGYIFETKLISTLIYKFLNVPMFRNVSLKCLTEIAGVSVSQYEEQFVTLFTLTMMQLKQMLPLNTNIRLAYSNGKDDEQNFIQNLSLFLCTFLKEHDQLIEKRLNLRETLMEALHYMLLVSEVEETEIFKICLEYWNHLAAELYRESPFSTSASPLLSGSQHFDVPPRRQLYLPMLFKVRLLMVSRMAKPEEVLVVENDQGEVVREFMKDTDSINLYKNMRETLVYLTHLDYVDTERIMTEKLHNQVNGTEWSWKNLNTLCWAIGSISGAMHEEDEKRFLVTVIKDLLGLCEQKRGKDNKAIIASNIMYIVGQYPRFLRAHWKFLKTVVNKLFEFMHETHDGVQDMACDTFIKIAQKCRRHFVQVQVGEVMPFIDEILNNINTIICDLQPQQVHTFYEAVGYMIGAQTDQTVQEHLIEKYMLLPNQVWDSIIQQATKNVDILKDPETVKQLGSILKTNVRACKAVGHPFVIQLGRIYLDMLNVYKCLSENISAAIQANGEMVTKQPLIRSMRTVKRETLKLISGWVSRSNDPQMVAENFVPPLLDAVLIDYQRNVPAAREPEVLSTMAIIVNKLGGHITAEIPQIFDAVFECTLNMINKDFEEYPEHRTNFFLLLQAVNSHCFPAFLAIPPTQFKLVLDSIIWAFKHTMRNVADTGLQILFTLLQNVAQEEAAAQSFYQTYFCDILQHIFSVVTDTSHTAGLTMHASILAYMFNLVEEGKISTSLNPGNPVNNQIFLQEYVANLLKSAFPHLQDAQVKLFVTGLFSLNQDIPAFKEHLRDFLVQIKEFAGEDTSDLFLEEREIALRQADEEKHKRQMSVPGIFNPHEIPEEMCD

CS(=O)(=O)Nc1ccc(/C(=C\n2cnc(-c3cc(C(F)(F)F)cc(C(F)(F)F)c3)n2)C(N)=O)cc1
pIC50 [1]: 6.70 | bioavailability [2]: 34.6% | viability at 1 µM (MM1.S [3]): 46.5% | pIC50 [4]: 6.80 | AUC(0-t) at 8 h [5]: 1.67 µg·h/mL | Activity (MM1.S [6]): 37.3% | pIC50 (H9): 7.00 | pIC50 [7]: 6.81 | Activity (MM1.S [8]): 11.5% | pIC50 (YT): 7.12 | Activity (MM1.S [9]): 64.7% | Activity (MM1.S [10]): 21.3% | Activity (MM1.S [11]): 48.3% | Activity (MM1.S [12]): 15.4% | Activity (MM1.S [13]): 6.94% | Activity (MM1.S [14]): 6.35% | pIC50 (MM1.S [15]): 7.62 | viability at 10 µM (MM1.S [16]): 28% | half-life [17]: 2.32 h | Activity (MM1.S [18]): 20.49% | Activity (MM1.S [19]): 33.4% | remaining at 1 h [20]: 85% | Activity (MM1.S [21]): 63.4% | Activity (MM1.S [22]): 27.36% | inhibition [23]: Active | viability at 0.1 µM (MM1.S [24]): 75.4% | pIC50 [25]: 7.10 | Cmax [26]: 1.39 µg/mL | Activity (MM1.S [27]): 52.1% | Activity (MM1.S [28]): 26.42% | Cmax [29]: 1.24 µg/mL | Activity (MM1.S [30]): 11.27% | clearance [31]: 0.565 L/h/kg | AUC(0-inf) [32]: 6.39 µg·h/mL | Activity (MM1.S [33]): 10.2% | pIC50 [34]: 6.72 | half-life [35]: 2.12 h
